Structures are written as SMILES. The source made the active and inactive calls. The rule behind the calls is not given here.

The results in this text go back to ChEMBL document CHEMBL4706756, “Combination Therapy of RNA Interference and Small Molecules for Treating Hepatitis B Virus Infection” (ACS Med Chem Lett, 2021).

The subject of series [1] is Hepatitis B virus. In words: Antiviral activity against HBV infected in CHB patient assessed as reduction in HBsAg level at 250 mg, po administered daily from 1 to 84 days in presence of RNAi component and NA relative to control. Format: functional. More on the design: scale not given: the % may be the effect or the level left. As to conditions: time 1-84 day.
Series [2] concerns Hepatitis B virus. The experiment in a line: Antiviral activity against HBV infected in CHB patient assessed as reduction in viral DNA level at 250 mg, po administered daily from 1 to 84 days in presence of RNAi component and NA. The class given is functional, organism-based. As to conditions: time 1-84 day.
Series [3] concerns Hepatitis B virus. The experiment in a line: Antiviral activity against HBV infected in CHB patient assessed as reduction in viral RNA level at 250 mg, po administered daily from 1 to 84 days in presence of RNAi component and NA. The settings on record: time 1-84 day. Format: functional, organism-based.
Series [4] has as its system Hepatitis B virus. In words: Antiviral activity against HBV infected in CHB patient assessed as reduction in HBeAg level at 250 mg, po administered daily from 1 to 84 days in presence of RNAi component and NA. The class given is functional, organism-based. As to conditions: time 1-84 day.
For series [5], the system named is Hepatitis B virus. The experiment in a line: Antiviral activity against HBV infected in CHB patient assessed as reduction in HBcrAg level at 250 mg, po administered daily from 1 to 84 days in presence of RNAi component and NA. Format: functional, organism-based. The settings on record: time 1-84 day.
The test system of series [6] is Hepatitis B virus. In words: Antiviral activity against HBV infected in HBeAg-positive CHB patient assessed as reduction in HBsAg level at 250 mg, po administered daily from 1 to 84 days in presence of RNAi component and NA. Format: functional, organism-based. The settings on record: time 1-84 day.
For series [7], the system named is Hepatitis B virus. In words: Antiviral activity against HBV infected in HBeAg-negative CHB patient assessed as reduction in HBsAg level at 250 mg, po administered daily from 1 to 84 days in presence of RNAi component and NA. Format: functional, organism-based. The settings on record: time 1-84 day.
Series [8] is described as follows: Toxicity in HBV infected CHB patient at 250 mg, po administered daily from 1 to 84 days in presence of RNAi component and NA. The settings on record: human, in vivo, time 1-84 day. Format: organism-based.

As to `C[C@H](NS(=O)(=O)c1cc(C(=O)Nc2ccc(F)c(C#N)c2)n(C)c1)C(F)(F)F` [BERSACAPAVIR], the values for the Activity in series [1] and in series [8] were 90% and “Non-Toxic”, respectively. In addition, the result in series [2], in series [3], in series [4], in series [5], in series [6] and in series [7] was Active.
